Test results: patent US20080194574A1, “Pyrazine Derivatives As Effective Compounds Against Infectious Diseases” (AXXIMA PHARMACEUTICALS AG, priority 2003, published 2008)
Read-outs that look alike come from different tables or passages of the source.

Molecular target: T1, viral kinase pUL-97 (Human cytomegalovirus, UniProt P16788)
T1 construct: The pUL-97 gene was cloned into a baculovirus vector; GST (glutathione S-transferase) (N); made in house; host or cells: Sf9 insect cells, baculovirus
Experiment: UL97 kinase assay on Immobilon plate
Format: biochemical
Details: inhibition of UL 97 kinase activity, read-out: Activity Class [A, B, C]
Procedure: UL97 Kinase-Assay on Immobilon Plate
The effect of pyrazine derivatives of this invention was tested on the activity of the viral kinase pUL-97. This kinase is derived from human cytomegalovirus (HCMV) (M. Marschall et al., Journal of General Virology, 2001, 82, 1439-1450). The pUL-97 gene was cloned into a baculovirus vector in order to produce GST (glutathione S-transferase) fusion protein. Insect cells (Sf9) were infected and GST-UL-97 purified via glutathione affinity columns according to standard procedures.
The pUL-97 kinase reaction was performed as described (M. Marschall et al., Journal of General Virology, 2001, 82, 1439-1450). Briefly, 10 μl Assay buffer (3 μM ATP, 60 μg/ml myelin basic protein (MBP) as substrate), 1.0 μCi γ-[^33P]ATP and 10 μl Basic buffer (20 mM Tris-HCl pH7.5, 0.5 mM MnCl2, 1 mM DTT (Dithiothreitol)) were given to the test tube before adding various concentrations of pyrazine derivatives. The reaction was started by adding 0.2 μl pUL-97 kinase, purified from infected Sf9-insect cells as described above. The total volume was adjusted with Basic buffer to a final volume of 30 μl. The reaction mix was incubated for 1 hr at 30° C. For negative control, 10 μl 0.1M EDTA (Ethylene Diamine tetraacetate) was added to reaction mix before addition of pUL-97 protein kinase. The reaction was stopped by addition of 10 μl 0.1 M EDTA.
Measuring Incorporation of Radioactivity:
The Immobilon plate (Millipore) was rinsed with 50 μl methanol/well. Following addition of 100 μl 0.1 M EDTA, 20 μl of each kinase reaction mix was added to one well of the Immobilon plate. Each well was washed 4× with 250 μl 0.75% phosphoric acid and 1× with 50 μl methanol. After addition of 50 μl scintillation cocktail (Roth, Germany) per well incorporation of radioactivity was measured using a Betareader (Wallac) and enzymatic activity calculated.

[1] = class by IC50 / % inhibition at 10 μM or 100 μM
[2] = class by IC50 / % inhibition at 10 or 100 μM

T1 sequence (P16788 whole entry): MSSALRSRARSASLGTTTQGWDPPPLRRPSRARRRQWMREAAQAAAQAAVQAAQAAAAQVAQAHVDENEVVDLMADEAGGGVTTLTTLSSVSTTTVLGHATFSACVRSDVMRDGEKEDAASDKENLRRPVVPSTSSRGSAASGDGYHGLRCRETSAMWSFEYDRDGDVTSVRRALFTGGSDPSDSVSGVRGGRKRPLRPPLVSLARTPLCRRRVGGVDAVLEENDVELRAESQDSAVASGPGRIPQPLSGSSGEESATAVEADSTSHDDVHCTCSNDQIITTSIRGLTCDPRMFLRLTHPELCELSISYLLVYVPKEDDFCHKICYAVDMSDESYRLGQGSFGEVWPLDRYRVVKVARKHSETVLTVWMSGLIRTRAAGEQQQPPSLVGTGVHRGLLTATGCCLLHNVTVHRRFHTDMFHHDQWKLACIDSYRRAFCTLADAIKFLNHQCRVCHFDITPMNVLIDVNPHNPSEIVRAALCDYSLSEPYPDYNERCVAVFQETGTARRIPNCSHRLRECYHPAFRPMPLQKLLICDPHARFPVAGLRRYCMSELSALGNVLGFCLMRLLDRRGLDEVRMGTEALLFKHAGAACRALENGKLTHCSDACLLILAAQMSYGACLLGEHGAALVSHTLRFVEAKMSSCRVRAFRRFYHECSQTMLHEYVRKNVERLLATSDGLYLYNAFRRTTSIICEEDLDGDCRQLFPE

Compound	IC50 [1]	IC50 [2]
OCc1ccc(-c2cncc(N3CCN(c4ccc(F)cc4)CC3)n2)cc1 [compound 269, {4-[4-(4-Fluoro-phenyl)-3,4,5,6-tetrahydro-2H-[1,2′]bipyrazinyl-6′-yl]-phenyl}-methanol]	1 to 10 µM	
Clc1ccc(N2CCN(c3cncc(-c4cccc5ccccc45)n3)CC2)cc1Cl [compound 287, 4-(3,4-Dichloro-phenyl)-6′-naphthalen-1-yl-3,4,5,6-tetrahydro-2H-[1,2′]bipyrazinyl]	10 to 100 µM	
CC(=O)c1ccccc1-c1cncc(N2CCN(c3cccc(C(F)(F)F)c3)CC2)n1 [compound 153, 1-{2-[4-(3-Trifluoromethyl-phenyl)-3,4,5,6-tetrahydro-2H-[1,2′]bipyrazinyl-6′-yl]-phenyl}-ethanone]		10 to 100 µM
OCc1ccc(-c2cncc(N3CCN(c4ccncc4)CC3)n2)cc1 [compound 258, [4-(4-Pyridin-4-yl-3,4,5,6-tetrahydro-2H-[1,2′]bipyrazinyl-6′-yl)-phenyl]-methanol]	1 to 10 µM	
CC(=O)c1cccc(-c2cncc(N3CCN(c4ccccc4)CC3)n2)c1 [compound 112, 1-[3-(4-Phenyl-3,4,5,6-tetrahydro-2H-[1,2′]bipyrazinyl-6′-yl)-phenyl]-ethanone]		1 to 10 µM
Fc1ccc(-c2cncc(N3CCN(c4cccc(Cl)c4)CC3)n2)cc1 [compound 99, 4-(3-Chloro-phenyl)-6′-(4-fluoro-phenyl)-3,4,5,6-tetrahydro-2H-[1,2′]bipyrazinyl]		1 to 10 µM
CSc1ccc(-c2cncc(N3CCN(c4ccc(Cl)c(Cl)c4)CC3)n2)cc1 [compound 372, 4-(3,4-Dichloro-phenyl)-6′-(4-methylsulfanyl-phenyl)-3,4,5,6-tetrahydro-2H-[1,2′]bipyrazinyl]	10 to 100 µM	
COc1ccc(Cl)cc1-c1cncc(N2CCN(c3ccccc3)CC2)n1 [compound 119, 6′-(5-Chloro-2-methoxy-phenyl)-4-phenyl-3,4,5,6-tetrahydro-2H-[1,2′]bipyrazinyl]		10 to 100 µM
Clc1cccc(N2CCN(c3cncc(-c4ccc5ccccc5c4)n3)CC2)c1 [compound 81, 4-(3-Chloro-phenyl)-6′-naphthalen-2-yl-3,4,5,6-tetrahydro-2H-[1,2′]bipyrazinyl]		10 to 100 µM
COc1cccc(N2CCN(c3cncc(-c4cc5ccccc5o4)n3)CC2)c1 [compound 285, 6′-Benzofuran-2-yl-4-(3-methoxy-phenyl)-3,4,5,6-tetrahydro-2H-[1,2′]bipyrazinyl]	1 to 10 µM	
CC(=O)c1ccc(N2CCN(c3cncc(-c4cccc(C)c4C)n3)CC2)cc1 [compound 150]		10 to 100 µM
CSc1ccc(-c2cncc(N3CCN(c4ccccc4F)CC3)n2)cc1 [compound 116, 4-(2-Fluoro-phenyl)-6′-(4-methylsulfanyl-phenyl)-3,4,5,6-tetrahydro-2H-[1,2′]bipyrazinyl]		1 to 10 µM
c1ccc(N2CCN(c3cncc(-c4cccs4)n3)CC2)nc1 [compound 31, 4-Pyridin-2-yl-6′-thiophen-2-yl-3,4,5,6-tetrahydro-2H-[1,2′]bipyrazinyl]		10 to 100 µM
c1ccc2c(-c3cncc(N4CCN(c5ccncc5)CC4)n3)csc2c1 [compound 222, 6′-Benzo[b]thiophen-3-yl-4-pyridin-4-yl-3,4,5,6-tetrahydro-2H-[1,2′]bipyrazinyl]	1 to 10 µM	
Cc1ccc(N2CCN(c3cncc(-c4ccc(CO)cc4)n3)CC2)c(C)c1 [compound 321, {4-[4-(2,4-Dimethyl-phenyl)-3,4,5,6-tetrahydro-2H-[1,2′]bipyrazinyl-6′-yl]-phenyl}-methanol]	10 to 100 µM	
COc1ccc(-c2cncc(N3CCN(c4cccc(C(F)(F)F)c4)CC3)n2)cc1OC [compound 161, 6′-(3,4-Dimethoxy-phenyl)-4-(3-trifluoromethyl-phenyl)-3,4,5,6-tetrahydro-2H-[1,2′]bipyrazinyl]		10 to 100 µM
COc1ccc(N2CCN(c3cncc(-c4ccsc4)n3)CC2)cc1OC [compound 261, 4-(3,4-Dimethoxy-phenyl)-6′-thiophen-3-yl-3,4,5,6-tetrahydro-2H-[1,2′]bipyrazinyl]	1 to 10 µM	
